# Measured values: patent US12083094B2, “Cannabinoid composition and methods of treatment using the same” (CANNPAL ANIMAL THERAPEUTICS LIMITED, priority 2018, dated 2024)
# Assay: Blood sampling for THC and CBD plasma concentration after single oral dosing
# Settings: oral
# Description: Two compositions, IVP1 and IVP2, were administered in varying amounts in the study.
# Dosage volumes were calculated prior to Day 0, to provide the target dosage in mg/kg bodyweight based on actual dog bodyweights and IVP active ingredient composition based on the Certificates of Analysis.
# Blood samples of approximately 5 mL were collected at each drug concentration sampling time-point from each animal using 22-gauge needles and 5 mL syringes.
# The data points from Table 4 and Table 5 were also plotted and these graphs are set out in FIGS. 1-16.
# [1] = dog, plasma, CBD concentration in blood plasma, individual dogs 1-4, 0.12 mg/kg CBD + 0.24 mg/kg THC oral once
# [2] = dog, plasma, CBD concentration in blood plasma, individual dogs 5-8, 0.24 mg/kg CBD + 0.12 mg/kg THC oral once
# [3] = dog, plasma, CBD concentration in blood plasma, mean of dogs 1-4, 0.12 mg/kg CBD + 0.24 mg/kg THC oral once
# [4] = dog, plasma, CBD concentration in blood plasma, mean of dogs 5-8, 0.24 mg/kg CBD + 0.12 mg/kg THC oral once
smiles,measurement,setting,value
"C=C(C)[C@@H]1CCC(C)=C[C@H]1c1c(O)cc(CCCCC)cc1O [CBD, Cannabidiol]",AUC of CBD after 0.12 mg/kg THC/0.24 mg/kg CBD relative to AUC of CBD after 0.24 mg/kg THC/0.12 mg/kg CBD,canine,more than twice
same,concentration at 0 h,[1],0 ng/mL
same,concentration at 1.5 h,[1],7.5 ng/mL
same,concentration at 2 h,[1],6.27 ng/mL
same,concentration at 32 h,[1],0 ng/mL
same,concentration at 0 h,[2],0 ng/mL
same,concentration at 2 h,[2],23.7 ng/mL
same,concentration at 3 h,[2],9.21 ng/mL
same,concentration at 4 h,[2],5.28 ng/mL
same,concentration at 12 h,[2],0.88 ng/mL
same,concentration at 16 h,[2],0.55 ng/mL
same,concentration at 24 h,[2],0.38 ng/mL
same,concentration at 32 h,[2],0.28 ng/mL
same,concentration at 72 h,"dog, plasma, CBD concentration in blood plasma, individual dogs 5-8, 0.24 mg/kg CBD + 0.12 mg/kg THC oral once, 72 h",0 ng/mL
same,concentration at 0 h,[3],0 ng/mL
same,concentration at 0.67 h,[3],12.3 ng/mL
same,concentration at 1 h,[3],11.2 ng/mL
same,concentration at 1.5 h,[3],8.6 ng/mL
same,concentration at 2 h,[3],6.89 ng/mL
same,concentration at 3 h,[3],4.31 ng/mL
same,concentration at 4 h,[3],2.9 ng/mL
same,concentration at 6 h,[3],2.02 ng/mL
same,concentration at 8 h,[3],1.3 ng/mL
same,concentration at 12 h,[3],0.41 ng/mL
same,concentration at 16 h,[3],0.16 ng/mL
same,concentration at 24 h,[3],0.11 ng/mL
same,concentration at 32 h,[3],0 ng/mL
same,concentration at 0 h,[4],0 ng/mL
same,concentration at 0.67 h,[4],30.1 ng/mL
same,concentration at 1 h,[4],35.8 ng/mL
same,concentration at 1.5 h,[4],26.9 ng/mL
same,concentration at 2 h,[4],17.9 ng/mL
same,concentration at 3 h,[4],7.5 ng/mL
same,concentration at 4 h,[4],4.53 ng/mL
same,concentration at 6 h,[4],3.31 ng/mL
same,concentration at 8 h,[4],2.79 ng/mL
same,concentration at 12 h,[4],0.77 ng/mL
same,concentration at 16 h,[4],0.54 ng/mL
same,concentration at 24 h,[4],0.35 ng/mL
